According to ChEMBL document CHEMBL1150032, “-hydroxy- and -ketoester functionalized thrombin inhibitors” (Bioorg Med Chem Lett, 1992):

Columns and labels:
[1] = target: T1, Prothrombin (Homo sapiens, UniProt P00734); test: Inhibitory concentration against thrombin when incubated with the compound for 3 min
[2] = Inhibitory concentration required to double thrombin clotting time in batch 1; type: functional, Homo sapiens
[3] = Inhibitory concentration required to double thrombin clotting time in batch 2; type: functional, Homo sapiens
[4] = target: T1, Prothrombin; test: Inhibitory concentration against thrombin when incubated with the compound for 3 min in batch 1
[5] = target: T1, Prothrombin; test: Inhibitory concentration against thrombin when incubated with the compound for 3 min in batch 2
[6] = Inhibitory concentration required to double thrombin clotting time; type: functional, Homo sapiens
[7] = target: T1, Prothrombin; test: Overall Inhibitory constant against thrombin was determined

Question: For `COC(=O)C(O)[C@H](CCCCN=C(N)N)NC(=O)[C@@H]1CCCN1C(=O)[C@H](N)Cc1ccccc1` (stereo not given in full), which IC50 [1] is on record?
Answer: 48000 nM

Question: Which results are given for `COC(=O)[C@@H](O)[C@H](CCCCN)NC(=O)[C@@H]1CCCN1C(=O)[C@H](N)Cc1ccccc1`?
Answer: IC50 [2]: > 300000 nM; IC50 [3]: > 300000 nM; IC50 [4]: 30500 nM; IC50 [5]: 20200 nM

Question: Which results are given for `NC(N)=NCCC[C@@H](C=O)NC(=O)[C@@H]1CCCN1C(=O)[C@H](N)Cc1ccccc1`?
Answer: IC50 [6]: 400 nM; IC50 [1]: 49 nM

Question: What does the source list for `COC(=O)C(O)(OC)C(CCCCN)NC(=O)[C@@H]1CCCN1C(=O)[C@H](N)Cc1ccccc1` (stereo not given in full)?
Answer: IC50 [6]: 390 nM; Ki [7]: 1.7 nM; IC50 [1]: 32 nM
